Data from ChEMBL document CHEMBL2086254, “Synthesis and identification of novel indolo[2,3-a]pyrimido[5,4-c]carbazoles as a new class of anti-cancer agents” (Eur J Med Chem, 2012).

Experiments:
Assay type in all cases: functional
HCC 2998 = assay: Cytotoxicity against human HCC2998 cells after 48 hrs by SRB assay; conditions: HCC 2998, 48 h
LOX IMVI = assay: Cytotoxicity in human LOXIMVI cells after 48 hrs by SRB assay
NCI-H460 = assay: Cytotoxicity against human NCI-H460 cells after 48 hrs by SRB assay; conditions: NCI-H460, 48 h
M14 = assay: Cytotoxicity against human M14 cells after 48 hrs by SRB assay; conditions: M14, 48 h
CAKI-1 = assay: Cytotoxicity against human Caki1 cells after 48 hrs by SRB assay; conditions: CAKI-1, 48 h
BT-549 = assay: Cytotoxicity against human BT549 cells after 48 hrs by SRB assay; conditions: BT-549, 48 h
NCI-H322M = assay: Cytotoxicity against human NCI-H322M cells after 48 hrs by SRB assay
[1] = Cytotoxicity against human breast cancer cell after 48 hrs by SRB assay; conditions: Cancer cell lines
SR = assay: Cytotoxicity against human SR cells after 48 hrs by SRB assay
OVCAR-5 = assay: Cytotoxicity against human OVCAR5 cells after 48 hrs by SRB assay; conditions: OVCAR-5, 48 h
EKVX = assay: Cytotoxicity against human EKVX cells after 48 hrs by SRB assay
SN12C = assay: Cytotoxicity against human SN12C cells after 48 hrs by SRB assay
OVCAR-3 = assay: Cytotoxicity against human OVCAR3 cells after 48 hrs by SRB assay; conditions: OVCAR-3, 48 h
SNB-19 = assay: Cytotoxicity against human SNB19 cells after 48 hrs by SRB assay; conditions: SNB-19, 48 h
COLO 205 = assay: Cytotoxicity against human COLO205 cells after 48 hrs by SRB assay; conditions: COLO 205, 48 h
[2] = read-out: LC50 (the source's name)

Compound: Cn1c2ccccc2c2c3nc(N)[nH]c(=O)c3c3c4ccccc4n(C)c3c21
- GI50 (HCC 2998): 6.08 µM
- TGI (HCC 2998): > 100 µM
- CC50 (HCC 2998; [2]): > 100 µM
- GI50 (LOX IMVI): 4.7 µM
- TGI (LOX IMVI): 31.1 µM
- CC50 (LOX IMVI; [2]): > 100 µM
- GI50 (NCI-H460): 3.06 µM
- TGI (NCI-H460): > 100 µM
- CC50 (NCI-H460; [2]): > 100 µM
- GI50 (M14): 3.36 µM
- TGI (M14): 89.6 µM
- CC50 (M14; [2]): > 100 µM
- GI50 (CAKI-1): 1330 nM
- TGI (CAKI-1): > 100 µM
- CC50 (CAKI-1; [2]): > 100 µM
- GI50 (BT-549): 16.3 µM
- TGI (BT-549): > 100 µM
- CC50 (BT-549; [2]): > 100 µM
- GI50 (NCI-H322M): 5.3 µM
- TGI (NCI-H322M): > 100 µM
- CC50 (NCI-H322M; [2]): > 100 µM
- GI50 [1]: 2130 nM
- TGI [1]: 44.1 µM
- CC50 [1, 2]: > 100 µM
- GI50 (SR): 4.61 µM
- TGI (SR): 41.8 µM
- CC50 (SR; [2]): > 100 µM
- GI50 (OVCAR-5): 52.3 µM
- TGI (OVCAR-5): > 100 µM
- CC50 (OVCAR-5; [2]): > 100 µM
- GI50 (EKVX): 12.7 µM
- TGI (EKVX): > 100 µM
- CC50 (EKVX; [2]): > 100 µM
- GI50 (SN12C): 6.49 µM
- TGI (SN12C): > 100 µM
- CC50 (SN12C; [2]): > 100 µM
- GI50 (OVCAR-3): 9.07 µM
- TGI (OVCAR-3): 25.6 µM
- CC50 (OVCAR-3; [2]): 69.8 µM
- GI50 (SNB-19): > 100 µM
- TGI (SNB-19): > 100 µM
- CC50 (SNB-19; [2]): > 100 µM
- GI50 (COLO 205): 7.99 µM
- TGI (COLO 205): 39.4 µM
- CC50 (COLO 205; [2]): > 100 µM
